Data as given in patent US20190083495A1, “Methods Of Preventing Or Reducing A Fibrotic Response Using CSF1R Inhibitors” (Massachusetts Institute of Technology, priority 2016, published 2019).
Entries after “also recorded” stand apart in the source; their conditions may differ.

Legend:
[1] = test system: C57BL/6 mice; assay: FACS analysis of immune cells dissociated from retrieved spheres, tissue and spleen; format: in vivo
Description: For targeted macrophage depletions, clodrosome (200 μL/mouse) (Encapsula Nano Sciences, Nashville, Tenn.) were injected intraperitoneally starting at −3 days (prior to implantation, day 0), and for every 7 days thereafter (so days −3, 4, and 11). To achieve neutrophil depletion, affinity purified anti-Ly6g (Clone 1A8) antibody (250 ug/mouse) (BioLegend, San Diego, Calif.) was administered also starting at day −3, and every 3 days thereafter (except the day of implantation). For the combination therapy, in order to avoid drug-antibody interactions, each agent was administered 4 hours apart from one another. To neutralize secreted CXCL13, anti-CXCL13 antibody (mAB470, R&D Systems) was injected i.p. in sterile 1×PBS at a dose of 100 μg/mouse, once every 3 days, starting 3 days prior to implantation as well. For selective macrophage inhibition and polarization, the CSF1R-targeted inhibitor GW2580 (LC Labs, Woburn, Mass.), was dissolved in a 1:1 DMSO/PEG400 solution, and injected daily (starting 1 day prior to implantation) at a dose of 160 mg/kg BW subcutaneously (s.c.), to eliminate concerns of vehicle directly perturbing responding immune cells as well as a recovering implant site.
Single-cell suspensions of freshly excised tissues were prepared using a gentleMACS Dissociator (Miltenyi Biotec, Auburn, Calif.) according to the manufacturer's protocol. […]

[2] = test system: CXCL10; assay: CXCL10 ELISA of protein lysates from retrieved alginate spheres and tissue; format: in vivo, C57BL/6 mice; conditions: lysates of alginate spheres and tissue retrieved at 14 days
[3] = test system: C57BL/6 mice; assay: Fibrosis of implanted material spheres retrieved after 14-day intraperitoneal implantation (phase contrast / brightfield imaging); format: in vivo
From the text: All protocols were approved by the MIT Committee on Animal Care, and all surgical procedures and post-operative care were supervised by MIT Division of Comparative Medicine veterinary staff. All mice, wild type male immune-competent (non-diabetic), STZ-induced diabetic, as well as knockout C57BL/6 mice, were ordered pathogen-free from Jackson Laboratory (Bar Harbor, Me.) or Taconic (Hudson, N.Y.). The status of all mice was subsequently verified by testing sentinel animals, shown to be negative for at least 12 known mouse pathogens. Implanted mice were anesthetized with 3% isoflurane in oxygen and had their abdomens shaved and sterilized using betadine and isopropanol. C57BL/6-Nude (T KO, B6NU), C57BL/6-Rag2^null (T & B KO, RAGN12), C57BL/6-Rag2^null/Il2rγ^null (Rag2/γ, 4111) were ordered from Taconic (Hudson, N.Y.), and C57BL/6-IghM^null (BKO, 002288), (C57BL/6) B6.12956-Ccr6tm1(EGFP)Irw/J. (Ccr6, 013061), and C57BL/6-C3 KO (C3 KO, 003641) mice were ordered from Jackson Laboratory, Bar Harbor, Me.). Preoperatively, all mice received 0.05 mg/kg buprenorphine and 0.2 mL of 0.9% saline subcutaneously for pre-surgery analgesia and dehydration prevention. A midline (abdomen) incision (0.5 mm) was made and the peritoneal lining was exposed using blunt dissection. The peritoneal wall was then grasped with forceps and a 0.5-1 mm incision was made along the linea alba. A desired volume of spheres (all materials) were then loaded into a sterile pipette and implanted into the peritoneal cavity. The incision was then closed using 5-0 taper-tipped polydioxanone (PDS II) absorbable sutures, and the skin was closed using a wound clip and VetBond tissue glue. For subcutaneous implantation, ˜200-300 μL of 500 μm SLG20 spheres were injected s.c. following anesthesia with isofluorane. […]

For COc1ccc(COc2ccc(Cc3cnc(N)nc3N)cc2OC)cc1 [GW2580], the “macrophage, neutrophil and B cell presence on spheres (normalized to cell counts from 100 μl material)” value ([1]; alginate spheres, 14 days post-i.p. implant) was “complete loss”, the “inhibition of host immune attack to alginate, glass and polystyrene spheres” value ([1]; compared with clodrosome-based macrophage depletion, 14 days i.p.) was “as effective as clodrosome-based macrophage depletion” and the CXCL10 protein level [2] was “increased reduction of CXCL10 back to wildtype levels”. The “fibrosis on 500 μm alginate spheres” value ([3]; SLG20 alginate 500 μm spheres, 14 day implant, vs wild type/vehicle control) was “prevented the fibrotic response; also recorded: completely eliminated; also recorded: prevents fibrosis”, the “fibrosis on 500 μm glass ceramic spheres” value ([3]; glass spheres, 14 days, vs saline vehicle) was “prevented the fibrotic response; also recorded: prevents fibrosis” and the “fibrosis on 500 μm polystyrene polymer spheres” value ([3]; polystyrene spheres, 14 days, vs saline vehicle) was “prevented the fibrotic response; also recorded: prevents fibrosis”.
